Structures can show the parent of a compound that is named as a salt. Starred links: 1 amine or outer side, 2 acyl side, 3 side chain; linkers in the order of their positions; H or OH if unused. Positions of bridges follow the written chain, without caps; N, C: chain ends. Non-standard residues stand in square brackets, D forms with d. Residues, ends and D or L forms follow the SMILES beside them. *: point of attachment. pTerphenylCO(4''-OnC5H11) = CCCCCOc1ccc(-c2ccc(-c3ccc(C(=O)*)cc3)cc2)cc1; Orn(4R-OH,5R-OH) = O=C([C@H](C[C@@H](O)[C@@H](O)N[*:3])N[*:1])[*:2]; hTyr(3S-OH,4S-OH) = N[C@H](C(=O)O)[C@H](O)[C@@H](O)c1ccc(O)cc1; Pro(3S-OH,4S-Me) = C[C@H]1CN[C@H](C(=O)O)[C@H]1O; Hyp = O=C(O)[C@@H]1C[C@@H](O)CN1
test system: HT29; conditions: 72 h, relative to DMSO, 10 µM, Relative cell viability (%)
Source text: To investigate the key signaling pathways and biological processes involved in CRC progression, we analyzed the National Center for Biotechnology Information Gene Expression Omnibus (GEO) dataset GSE115313, which included 42 CRC and paired normal tissues (Figure 1A). […] Next, we performed an Annexin V‐fluorescein isothiocyanate (FITC)/propidium iodide (PI) staining assay to determine the effect of aripiprazole on apoptosis in CRC cells. […] A) Principal component analysis of GEO dataset (GSE115313), which includes 42 CRC and paired normal tissues. B) Gene Ontology pathway analysis of the DEPs between CRC and paired normal tissues. […] D) Schematic diagram for identifying anticancer drugs amongst an US Food and Drug Administration‐approved small‐molecule library (616 compounds) using WST‐1 assay. E) HT29 cells were treated with the 616 drugs (10 µM) individually or with dimethyl sulfoxide for 72 h, followed by WST‐1 assay. […] J) Mice bearing HT29‐derived tumor xenografts were intragastrically administered with aripiprazole (10 or 20 mg kg^−1) once every 2 d, n = 6 mice/group. […] Bars, SD; ^* p < 0.05; ^** p < 0.01; ^*** p < 0.001; ns, no significant difference. The WST‐1 Cell Proliferation and Cytotoxicity Assay Kit (Beyotime Biotechnology, Shanghai, China) was used to measure cell viability, as described previously.^[ [10] ^] CRC cells were seeded into 96‐well plates and treated with different drug concentrations. Following that, WST‐1 was added to the plate and incubated with the cells for 2 h, at 37 °C. Absorbance at the wavelength of 450 nm was measured using an automated microplate spectrophotometer (BioTek Instruments, Winooski, VT, USA).

| Structure (SMILES) | Relative cell viability (%) [%] |
| --- | --- |
| CCOC(=O)C1=C(COCCN)NC(C)=C(C(=O)OC)C1c1ccccc1Cl (stereo not shown) [Amlodipine besylate (Norvasc)] | 75.42 |
| CCOC(=O)C1=C(COCCN)NC(C)=C(C(=O)OC)C1c1ccccc1Cl (stereo not shown) [Amlodipine] | 88.54 |
| COc1ccc(C[C@@H]2c3cc(OC)c(OC)cc3CC[N@+]2(C)CCC(=O)OCCCCCOC(=O)CC[N@@+]2(C)CCc3cc(OC)c(OC)cc3[C@H]2Cc2ccc(OC)c(OC)c2)cc1OC [Atracurium Besylate] | 91.95 |

same assay, conditions: 72 h, relative to DMSO; 10 µM

| Structure (SMILES) | Relative cell viability (%) [%] |
| --- | --- |
| CN1C[C@@H]2c3ccccc3Oc3ccc(Cl)cc3[C@H]2C1 (racemic) [Asenapine] | 50.93 |
| COC(=O)C1=C(C)NC(C)=C(C(=O)O[C@@H]2CCCN(Cc3ccccc3)C2)[C@@H]1c1cccc([N+](=O)[O-])c1 (racemic) [Benidipine HCl] | 75.78 |
| C[N+](C)(C)CC(O)CC(=O)[O-] (racemic) [DL-Carnitine HCl] | 125.5 |
| CC(C)n1c(/C=C/[C@@H](O)C[C@@H](O)CC(=O)O)c(-c2ccc(F)cc2)c2ccccc21 (racemic) [Fluvastatin Sodium] | 103.4 |
| COc1ccc(C[C@@H](C)NC[C@H](O)c2ccc(O)c(NC=O)c2)cc1 (racemic) [Formoterol Hemifumarate] | 95.63 |
| CC(=O)N1CCN(c2ccc(OC[C@@H]3CO[C@@](Cn4ccnc4)(c4ccc(Cl)cc4Cl)O3)cc2)CC1 (racemic) [Ketoconazole] | 43.15 |
| COc1cc2c(cc1OC)[C@H]1CC(=O)[C@H](CC(C)C)CN1CC2 (racemic) [Tetrabenazine (Xenazine)] | 97.03 |
| Cc1ccc(S(=O)(=O)NC(=O)NN2CC3CCC[C@@H]3C2)cc1 (stereo in doubt) [Gliclazide] | 70.87 |
| C=CC(=O)Nc1cc(Nc2nccc(-c3cn(C)c4ccccc34)n2)c(OC)cc1N(C)CCN(C)C [AZD9291] | 0.8547 |
| NC(=O)c1ncn([C@@H]2O[C@H](CO)[C@@H](O)[C@H]2O)c1N [Acadesine] | 105.9 |
| C[C@H]1O[C@H](O[C@H]2[C@H](O)[C@@H](O)[C@@H](O[C@H]3[C@H](O)[C@@H](O)C(O)O[C@@H]3CO)O[C@@H]2CO)[C@H](O)[C@@H](O)[C@@H]1N[C@H]1C=C(CO)[C@@H](O)[C@H](O)[C@H]1O (stereo partly shown) [Acarbose] | 103.9 |
| COc1ccc2c(c1)c(CC(=O)OCC(=O)O)c(C)n2C(=O)c1ccc(Cl)cc1 [Acemetacin] | 81.07 |
| CC(=O)OCC[N+](C)(C)C [Acetylcholine Chloride] | 93.22 |
| Nc1nc2c(ncn2COCCO)c(=O)[nH]1 [Aciclovir] | 89.41 |
| Cc1cnc(C(=O)O)c[n+]1[O-] [Acipimox] | 94.49 |
| COc1cc(C)c(/C=C/C(C)=C/C=C/C(C)=C/C(=O)O)c(C)c1C [Acitretin] | 60.28 |
| COc1ccc(-c2ccc3cc(C(=O)O)ccc3c2)cc1[C@]12C[C@H]3C[C@H](C[C@H](C3)C1)C2 [Adapalene] | 16.67 |
| CCN(CC)CCOC(=O)C(c1ccccc1)c1ccccc1 [Adiphenine HCl] | 119.6 |
| CN(C)C/C=C/C(=O)Nc1cc2c(Nc3ccc(F)c(Cl)c3)ncnc2cc1O[C@H]1CCOC1 [Afatinib (BIBW2992) Dimaleate] | 20.09 |
| Cn1ncc(Cl)c1-c1cc(C(=O)N[C@H](CN)Cc2cccc(F)c2)sc1Cl [Afuresertib (GSK2110183)] | 13.68 |

| Structure (SMILES) | Relative cell viability (%) [%] |
| --- | --- |
| COc1ccc2cccc(CCNC(C)=O)c2c1 [Agomelatine] | 61.84 |
| CCC[S+]([O-])c1ccc2[nH]c(NC(=O)OC)nc2c1 (stereo not shown) [Albendazole Oxide] | 65.25 |
| C=CCc1cc(OC)c(O)c(C(=O)NCCO)c1 [Alibendol] | 149.2 |
| COCCCOc1cc(C[C@@H](C[C@H](N)[C@@H](O)C[C@H](C(=O)NCC(C)(C)C(N)=O)C(C)C)C(C)C)ccc1OC [Aliskiren Hemifumarate] | 106.1 |
| CN(C)CCc1c[nH]c2ccc(CS(=O)(=O)N3CCCC3)cc12 [Almotriptan Malate] | 113.8 |
| Cn1c(=O)cc(N2CCC[C@@H](N)C2)n(Cc2ccccc2C#N)c1=O [Alogliptin] | 101.5 |
| CCOC(=O)[C@H]1O[C@@H]1C(=O)N[C@@H](CC(C)C)C(=O)NCCC(C)C [Aloxistatin] | 100.9 |
| CN(C)c1nc(N(C)C)nc(N(C)C)n1 [Altretamine] | 57.17 |
| Cc1c(-c2ccnn2C)cc(C(=O)NCc2ccc(S(C)(=O)=O)cn2)c(=O)n1-c1cccc(C(F)(F)F)c1 [Alvelestat (AZD9668)] | 116.2 |
| CCN(CCCc1ccccc1)CCCc1ccccc1 [Alverine Citrate] | 78.16 |
| NC12CC3CC(CC(C3)C1)C2 [Amantadine HCl] | 105.5 |
| COC(c1ccccc1)(c1ccccc1)[C@H](Oc1nc(C)cc(C)n1)C(=O)O [Ambrisentan] | 132.6 |
| Nc1c(Br)cc(Br)cc1CN[C@H]1CC[C@H](O)CC1 [Ambroxol HCl] | 67.96 |
| CC(NC(C)(C)C)C(=O)c1cccc(Cl)c1 (stereo not shown) [Amfebutamone HCl] | 104.9 |
| N=C(N)NC(=O)c1nc(Cl)c(N)nc1N [Amiloride HCl] | 66.53 |
| Nc1nccs1 [Aminothiazole] | 93.03 |
| CCN1CCCC1CNC(=O)c1cc(S(=O)(=O)CC)c(N)cc1OC (stereo not shown) [Amisulpride] | 77.41 |
| CN(C)CCN1C(=O)c2cccc3cc(N)cc(c23)C1=O [Amonafide] | 8.879 |
| Clc1ccc2c(c1)C(N1CCNCC1)=Nc1ccccc1O2 [Amoxapine] | 73.94 |
| CC1(C)S[C@@H]2[C@H](NC(=O)[C@H](N)c3ccc(O)cc3)C(=O)N2[C@H]1C(=O)O [Amoxicillin] | 67.96 |

| Structure (SMILES) | Relative cell viability (%) [%] |
| --- | --- |
| S=C(NCc1ccc2c(c1)OCO2)N1CCN(c2ncnc3c2oc2ccccc23)CC1 [Amuvatinib (MP-470)] | 66.51 |
| CCCCCOc1ccc(-c2ccc(-c3ccc(C(=O)N[C@H]4C[C@@H](O)[C@@H](O)NC(=O)[C@@H]5[C@@H](O)[C@@H](C)CN5C(=O)[C@H]([C@@H](C)O)NC(=O)[C@H]([C@H](O)[C@@H](O)c5ccc(O)cc5)NC(=O)[C@@H]5C[C@@H](O)CN5C(=O)[C@H]([C@@H](C)O)NC4=O)cc3)cc2)cc1 [Anidulafungin (LY303366)] ({pTerphenylCO(4''-OnC5H11)}-[Orn(4R-OH,5R-OH)]T[Hyp][hTyr(3S-OH,4S-OH)]T[Pro(3S-OH,4S-Me)]; lactam 1-C) | 71.21 |
| COc1ccc(C(=O)N2CCCC2=O)cc1 [Aniracetam] | 91.43 |
| CCCC(CCC)C(=O)O[C@H]1C[C@H]2CC[C@@H](C1)[N+]2(C)C [Anisotropine Methylbromide] | 55.76 |
| c1ccc(CN(CC2=NCCN2)c2ccccc2)cc1 [Antazoline HCl] | 63.94 |
| N#CC1(c2ccc(NC(=O)c3cccnc3NCc3ccncc3)cc2)CCCC1 [Apatinib] | 110.8 |
| COC(=O)C1=CCCN(C)C1 [Arecoline] | 59.22 |
| CC1CNc2c(cccc2S(=O)(=O)N[C@@H](CCCNC(=N)N)C(=O)N2CC[C@@H](C)C[C@@H]2C(=O)O)C1 (stereo partly shown) [Argatroban] | 123.2 |
| CO[C@H]1O[C@@H]2O[C@@]3(C)CC[C@H]4[C@H](C)CC[C@@H]([C@H]1C)[C@@]24OO3 [Artemether] | 126.1 |
| C[C@@H]1CC[C@H]2[C@@H](C)C(=O)O[C@@H]3O[C@@]4(C)CC[C@@H]1[C@]32OO4 [Artemisinin] | 110.1 |
| COC(=O)[C@H](Cc1ccccc1)NC(=O)[C@@H](N)CC(=O)O [Aspartame] (H-Asp-Phe-OMe) | 199.9 |
| CC(=O)Oc1ccccc1C(=O)O [Aspirin] | 63.59 |
| NC(=O)[C@@H](CCC(F)(F)F)N(Cc1ccc(-c2ncon2)cc1F)S(=O)(=O)c1ccc(Cl)cc1 [Avagacestat (BMS-708163)] | 74.3 |
| COc1ccc(C(=O)CC(=O)c2ccc(C(C)(C)C)cc2)cc1 [Avobenzone] | 117.3 |
| Nc1ncn([C@@H]2O[C@H](CO)[C@@H](O)[C@H]2O)c(=O)n1 [Azacitidine] | 56.36 |
| O=C(CCCN1CCN(c2ccccn2)CC1)c1ccc(F)cc1 [Azaperone] | 93.03 |
| CC1=C(C(=O)OC(C)C)C(c2cccc([N+](=O)[O-])c2)C(C(=O)OC2CN(C(c3ccccc3)c3ccccc3)C2)=C(N)N1 (stereo not shown) [Azelnidipine] | 73.79 |
| CCOc1nc2cccc(C(=O)OCc3oc(=O)oc3C)c2n1Cc1ccc(-c2ccccc2-c2noc(=O)[nH]2)cc1 [Azilsartan Medoxomil] | 116 |

Reference: paper PMC11672294, “The Antipsychotic Drug Aripiprazole Suppresses Colorectal Cancer by Targeting LAMP2a to Induce RNH1/miR‐99a/mTOR‐Mediated Autophagy and Apoptosis” (Advanced Science, 2024)
